{"source": "paper PMC9961069", "about": "(Metabolites, 2023)", "key": {"[1]": {"test_system": "STAT3 transcriptional activity in U3A STAT3 luciferase reporter cell line", "experiment": "STAT3 luciferase reporter assay", "assay_type": "cell-based", "conditions": "0.02–20 μM, OSM 10 ng/mL", "procedure": "The STAT3-dependent luciferase reporter assay was performed as previously reported. One day prior to the assay, the U3A STAT3 luciferase reporter cell line was seeded in a 96-well plate at 8000 cells per well. Cells were then incubated with compounds at the indicated concentration, and each well was treated with either media control or stimulated with 10 ng/mL oncostatin M (OSM) and incubated for six hours at 37 °C. Luciferase activity was quantified using the Bright-Glo Luciferase Assay system (Promega) and a Luminoskan Ascent Luminometer (Labsystems). Collected luminescence readings were normalized to DMSO-treated controls. Stimulation with (+OSM) gave luminescence values around 2.5 times that of the unstimulated control (−OSM). Quadruplicates were averaged and plotted with error bars representing standard deviation. Each condition was performed in quadruplicate on two separate occasions (n = 2) with representative data shown. Statistical significance was determined using Ordinary one-way ANOVA with a Dunnett multiple comparison test."}, "MDA-MB-231 cells": {"test_system": "MDA-MB-231 cells", "experiment": "LC/MS-based metabolite profiling", "assay_type": "cell-based, Human", "conditions": "24 h", "procedure": "For characterization by mass spectrometry, MDA-MB-231 cells were seeded at a density of 3 × 10^5 cells per well in 6-well plates. […] DMSO only and DMSO + folinic acid controls were also performed. Per condition, biological quadruplicates of approximately one million cells were harvested, washed briefly with 1 mL of 0.9% NaCl (prepared in LC/MS-grade water Fisher Scientific W6500), and extracted in 500 μL prechilled extraction buffer (80% LC/MS-grade methanol, 20% 125 mM ammonium acetate, 12.5 mM sodium ascorbate prepared in LC/MS-grade water and supplemented with aminopterin (catalog no.: 16.330; Schircks Laboratories) and isotopically labeled internal standards (17 amino acids and reduced glutathione [Cambridge Isotope Laboratories; MSK- A2-1.2 and CNLM-6245-10])) using a cell scraper. After centrifugation for 10 min, 4 °C, at maximum speed on a benchtop centrifuge (Eppendorf), the cleared supernatant was transferred to a new tube and dried using a nitrogen dryer (Reacti-Vap™ Evaporator, Thermo Fisher Scientific, TS-18826) while on ice. Once the drying process was completed, samples were reconstituted in 50 µL QReSS water (Cambridge Isotope Laboratories, MSK-QRESS-KIT) by brief sonication in a 4 °C water bath. Extracted metabolites were spun for 3 min, 4 °C, at maximum speed on a bench-top centrifuge, and cleared supernatant was transferred to LC/MS microvials (National Scientific, C5000-45B). Three microliters of each sample were pooled and serially diluted 3- and 10-fold to be used as quality controls throughout the run of each batch. Unlabeled QReSS metabolites (Cambridge Isotope Laboratories, MSK-QReSS-US-KIT) and unlabeled amino acid mix standard (Cambridge Isotope Laboratories, MSK-A2-US-1.2) were also included in the run to ensure high-quality metabolomics results.\nOne microliter (equivalent to 2 × 10^4 cells) of the reconstituted sample was injected into a ZIC-pHILIC 150 × 2.1 mm (5 µm particle size) column (EMD Millipore) operated on a Vanquish™ Flex UHPLC Systems (Thermo Fisher Scientific, San Jose, CA, USA). Chromatographic separation was achieved using the following conditions: buffer A was acetonitrile; buffer B was 20 mM ammonium carbonate, 0.1% ammonium hydroxide. Gradient conditions were: linear gradient from 20% to 80% B; 20–20.5 min: from 80% to 20% B; 20.5–28 min: hold at 20% B. The column oven and autosampler tray were held at 25 °C and 4 °C, respectively.\nMass spectrometry data acquisition was performed using a QExactive benchtop orbitrap mass spectrometer equipped with an Ion Max source and a HESI II probe (Thermo Fisher Scientific, San Jose, CA, USA) and was performed in positive and negative ionization mode in a range of m/z = 70–1000, with the resolution set at 70,000, the AGC target at 1 × 10^6, and the maximum injection time (Max IT) at 20 msec. For nucleotide tSIM scans, the resolution was set at 70,000, the AGC target was 1 × 10^5, and the max IT was 100 msec.\nManual curation and integration of chromatographic peaks were performed with TraceFinder 4.1 (Thermo Fisher Scientific, Waltham, MA, USA) using a 5 ppm mass tolerance and referencing an in-house library of chemical standards. Data from TraceFinder were further consolidated and normalized with an in-house R script: (https://github.com/FrozenGas/KanarekLabTraceFinderRScripts/blob/main/MS_data_script_v2.4_20221018.R (accessed on 22 November 2022)). Briefly, this script performs normalization and quality control steps: (1) extracts and combines the peak areas from TraceFinder output .csvs; (2) calculates and normalizes to an averaged factor from all mean-centered chromatographic peak areas of isotopically labeled amino acids internal standards within each sample; (3) filters out low-quality metabolites based on user inputted cut-offs calculated from pool reinjections and pool dilutions; (4) calculates and normalizes for biological material amounts based on the total integrated peak area values of high-confidence metabolites. […]"}, "[2]": {"test_system": "T1, DHFR in MDA-MB-468 lysates", "T1 construct": "reactions containing 55 μg MDA-MB-468 lysate; endogenous in cells; host or cells: MDA-MB-468", "experiment": "Lysate cellular thermal shift assay (CETSA) for DHFR", "assay_type": "binding, Human", "conditions": "10 μM, MDA-MB-468 lysate, 45 °C for 3 min, DMSO at 37 °C = 100%", "procedure": "Trypsinized MDA-MB-468 cells were harvested by centrifugation at 200× g for 5 min and washed with PBS supplemented with EDTA-free PIC (Roche) and flash frozen for storage at −80 °C. Cells were lysed by resuspension in 60 μL PBS/PIC per 1 × 10^6 cells. Cells were lysed by three freeze-thaw cycles, where cells were frozen in an ethanol/dry ice bath for 3 min, immediately followed by incubation in a 37 °C water bath for 3 min. The insoluble fraction was removed by centrifugation at 20,000× g for 20 min at 4 °C. The supernatant containing the soluble lysate was removed and saved for subsequent steps.\nAfter incubation, each reaction was transferred to a 1.5 mL tube and centrifuged at 20,000× g for 20 min at 4 °C to remove the insoluble proteins. After centrifugation, 18 μL of supernatant was carefully removed from each reaction, without disturbing any pelleted aggregates, and added to 4.5 μL of 5× SDS-PAGE loading buffer. 11 μL of each reaction was loaded onto a gel in duplicate, and proteins were detected by Western blot (as described below). Resulting band densities were fit to the Boltzmann equation to determine the melting temperature (Tm):(3) y=Bottom+Top−Bottom/1+e^Tm−x/Slope\nTo rescue the thermal degradation of DHFR by inhibitors, samples containing 10 μM inhibitor, 55 μg lysate, and 1% DMSO in a total volume of 28 μL in DHFR buffer were prepared in PCR tubes and incubated at room temperature for 20 min. Two DMSO-only controls were also prepared. Reactions containing inhibitors were then incubated at 45 °C for 3 min. One DMSO-only control was also heated at 45 °C for 3 min, and the other control was heated at 37 °C for 3 min. The soluble protein fraction was separated from the insoluble proteins by centrifugation, and proteins were separated by SDS-PAGE, as described above, and analyzed via Western blot, as described below. Each experiment was repeated 3 times.\nProteins were electrophoretically separated on a 10% gel, and proteins were transferred to a methanol-activated PVDF membrane using the Trans-Blot Turbo transfer system (Bio-Rad) for 7 min at 1.3 A and 25 V in Trans-Blot Turbo transfer buffer (Bio-Rad). Membranes were blocked with 5% skim milk w/v in TBS-T (20 mM Tris, 150 mM NaCl, 0.05% Tween-20) for 1 h at room temperature. […] The horseradish peroxidase (HRP)-linked anti-mouse IgG secondary antibody (NA931, Cytiva; 1:3000) was added for 1 h at room temperature in 5% skim milk w/v in TBS-T. Signal was detected by adding Immobilon Forte Western HRP Substrate (Millipore), and chemiluminescence was captured on a Sapphire Biomolecular Imager (Azure Biosystems). Band densities were determined using ImageJ (Fiji). The band intensity of DHFR was normalized to the thermostable loading control SOD1 [22]."}}}
{"smiles": "CN(Cc1cnc2nc(N)nc(N)c2n1)c1ccc(C(=O)N[C@@H](CCC(=O)O)C(=O)O)cc1", "note": "[MTX, methotrexate]", "values": [{"measurement": "Inhibition of STAT3-dependent luciferase activity", "setting": "[1]", "result": "potent inhibition of luciferase activity"}, {"measurement": "Orotate levels with FA supplementation", "setting": "MDA-MB-231 cells; 10 μM + 300 μg/mL FA", "result": "returned orotate to vehicle control levels"}, {"measurement": "AICAR levels", "setting": "MDA-MB-231 cells; 10 μM, inhibitor alone", "result": "failed to increase AICAR levels in a statistically significant manner"}, {"measurement": "Orotate levels", "setting": "MDA-MB-231 cells; 10 μM, inhibitor alone", "result": "decreased or statistically insignificant changes in orotate levels"}, {"measurement": "UDP level", "setting": "MDA-MB-231 cells; 10 μM, inhibitor alone versus DMSO", "result": "not upon treatment with MTX and 127159 alone"}, {"measurement": "Normalized Band Density (%) of soluble DHFR", "setting": "[2]", "result": "greater than 100%"}, {"measurement": "Normalized Band Density (%) of soluble DHFR", "setting": "[2]; listed as Methotrexate", "result": "123.37 ± 73.5", "unit": "%"}]}
